The target of experiment [1] is T1, human glucagon receptor (Homo sapiens (Human), UniProt P47871). The experiment is described as follows: Human Glucagon SPA Assay (binding of [125I]Glucagon-Cex). The note with it: membrane from chem-1 cells stably transfected with the human glucagon receptor, Ki by Cheng-Prusoff equation.
Experiment [2] addresses T1, human glucagon receptor. The experiment is described as follows: Glucagon cAMP Assay (Cisbio cAMP detection). The note with it: CHOK1 cells stably transfected with the human glucagon receptor; block of glucagon induced cAMP production; Kb by modified Cheng-Prusoff equation. In kind it is cell-based. In general terms: Changes in cAMP serve as a functional read-out for many G protein-coupled receptors.

Each structure is given as a SMILES string.

The term Ki denotes a dissociation constant, usually derived from enzyme kinetics or from competition with a known ligand.

T1 sequence (P47871 26-477): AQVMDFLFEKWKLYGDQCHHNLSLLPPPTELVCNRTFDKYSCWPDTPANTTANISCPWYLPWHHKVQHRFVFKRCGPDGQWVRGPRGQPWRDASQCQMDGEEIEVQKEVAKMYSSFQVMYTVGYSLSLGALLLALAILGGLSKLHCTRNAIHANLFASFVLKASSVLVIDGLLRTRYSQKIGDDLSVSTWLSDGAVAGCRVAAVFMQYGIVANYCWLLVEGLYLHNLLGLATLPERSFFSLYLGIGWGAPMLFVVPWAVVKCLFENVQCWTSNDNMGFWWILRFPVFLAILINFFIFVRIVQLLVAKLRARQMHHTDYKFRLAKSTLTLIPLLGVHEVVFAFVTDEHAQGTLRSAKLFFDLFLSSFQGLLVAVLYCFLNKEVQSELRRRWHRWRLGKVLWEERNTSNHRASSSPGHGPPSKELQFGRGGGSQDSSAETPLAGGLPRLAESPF

On to `O=C(O)CCNC(=O)c1ccc([C@H](CCC(F)(F)F)Nc2ccc(-n3cc(C(F)(F)F)cn3)nc2)cc1` (single isomer, unassigned; isomer 2) [Example 173, N-{4-[4,4,4-trifluoro-1-({6-[4-(trifluoromethyl)-1H-pyrazol-1-yl]pyridin-3-yl}amino)butyl]benzoyl}-beta-alanine, Isomer 2], for which the Ki on human glucagon receptor [1] is 26.6 nM. This compound also had a Kb at human glucagon receptor [2] of 641 nM.
With `CC1(C)CC([C@H](Nc2ccc(-n3cc(C4CC4)cn3)nc2)c2ccc(C(=O)NCCC(=O)O)cc2)C1` (single isomer, unassigned; isomer 2) [Example 175, N-{-4-[{[6-(4-cyclopropyl-1H-pyrazol-1-yl)pyridin-3-yl]amino}(3,3-dimethylcyclobutyl)methyl]benzoyl}-beta-alanine, Isomer 2], the inhibition constant Ki at human glucagon receptor [1] worked out at 28.7 nM. This compound also registered a Kb at human glucagon receptor [2] of 10.5 nM.
At human glucagon receptor [1], `CC(C)(C)[C@H](Nc1ccc(-n2cc(C(F)(F)F)cn2)nc1)c1ccc(C(=O)NCCC(=O)O)cc1` (single isomer, unassigned; isomer 2) [Example 180, 3-(4-(2,2-dimethyl-1-((6-(4-(trifluoromethyl)-1H-pyrazol-1-yl)pyridin-3-yl)amino)propyl)benzamido)propanoic acid, Isomer 2] gave a Ki of 10.3 nM. Further, the Kb at human glucagon receptor [2] stood at 45 nM.
As for `CC(C)(C)[C@H](Nc1ccc(-n2cnc(C(F)(F)F)c2)nc1)c1ccc(C(=O)NCCC(=O)O)cc1` (single isomer, unassigned; isomer 2) [Example 183, 3-(4-(2,2-dimethyl-1-((6-(4-(trifluoromethyl)-1H-imidazol-1-yl)pyridin-3-yl)amino)propyl)benzamido)propanoic acid, Isomer 2], the inhibition constant (Ki) on human glucagon receptor [1] turned out to be 53.5 nM. At human glucagon receptor [2], this compound yielded a Kb of 154 nM.
`Cc1nn(-c2ccc(N[C@H](c3ccc(C(=O)NCCC(=O)O)cc3)C3CCCC3)cn2)cc1Cl` (single isomer, unassigned; isomer 2) [Example 192, 3-(4-((6-(4-chloro-3-methyl-1H-pyrazol-1-yl)pyridin-3-ylamino)(cyclopentyl)methyl)benzamido)propanoic acid, Isomer 2] came in with a Ki at human glucagon receptor [1] of 50.3 nM. Besides, the Kb on human glucagon receptor [2] turned out to be 88.5 nM.
Compound `CC(C)c1cn(-c2ccc(NC(c3ccc(C(=O)NCCC(=O)O)cc3)C3CCCC3)cn2)cn1` (stereo not shown) [Example 123, 3-(4-(cyclopentyl(6-(4-isopropyl-1H-imidazol-1-yl)pyridin-3-ylamino)methyl)benzamido)propanoic acid] came in with a Ki on human glucagon receptor [1] of 88.4 nM. At human glucagon receptor [2], this compound displayed a Kb of 106 nM.
Compound `CCCC(Oc1ccc(-n2cc3cccc(C)c3n2)cc1)c1ccc(C(=O)NCCC(=O)O)cc1` (stereo not shown) [Example 125, 3-(4-(1-(4-(7-methyl-2H-indazol-2-yl)phenoxy)butyl)benzamido)propanoic acid] displayed a Ki at human glucagon receptor [1] of 98.2 nM. Besides, the Kb on human glucagon receptor [2] came to 144 nM.
For the compound `CCCC(Oc1ccc(-n2cc3ccc(C)cc3n2)cc1)c1ccc(C(=O)NCCC(=O)O)cc1` (stereo not shown) [Example 126, 3-(4-(1-(4-(6-methyl-2H-indazol-2-yl)phenoxy)butyl)benzamido)propanoic acid], at human glucagon receptor [1], the Ki came to 161 nM. In addition, the Kb on human glucagon receptor [2] was 212 nM.
The matching figures for `CCCC(Oc1ccc(-n2cc3c(C)cccc3n2)cc1)c1ccc(C(=O)NCCC(=O)O)cc1` (stereo not shown) [Example 127, 3-(4-(1-(4-(4-methyl-2H-indazol-2-yl)phenoxy)butyl)benzamido)propanoic acid]: 316 nM and 202 nM.
Take `CCCC(Oc1ccc(-n2cc3cc(C)ccc3n2)cc1)c1ccc(C(=O)NCCC(=O)O)cc1` (stereo not shown) [Example 128, 3-(4-(1-(4-(5-methyl-2H-indazol-2-yl)phenoxy)butyl)benzamido)propanoic acid]: on human glucagon receptor [1], the affinity, expressed as Ki, was 208 nM. The same compound registered a Kb on human glucagon receptor [2] of 268 nM.
`CCCC(Oc1cc(C)c(-n2cc(Cl)cn2)c(C)c1)c1ccc(C(=O)NCCC(=O)O)cc1` (stereo not shown) [Example 130, (+\−)-3-(4-(1-(4-(4-chloro-1H-pyrazol-1-yl)-3,5-dimethylphenoxy)butyl)benzamido)propanoic acid]: the affinity at human glucagon receptor [1], expressed as Ki, was 116 nM. On human glucagon receptor [2], this compound displayed a Kb of 195 nM.
